Reference: paper PMC7021728, “Structure of the agonist 12–HHT in its BLT2 receptor-bound state” (Scientific Reports, 2020)
Changes are numbered by the printed parent chain.

Key:
BLT1 = molecular target: BLT1; set-up: method as in PMID 10934230; conditions: membrane fractions, BLT1 transfected HEK 293 cells; in cellulo; read-out: equilibrium dissociation constant (Kd); cited from earlier work
[1] = system: BLT1 (residue R156 in BLT1 mutated to alanine); set-up: method as in PMID 17237498; conditions: in words; cited from earlier work
purified BLT2 receptor = molecular target: purified BLT2 receptor; set-up: method as in PMID 21688157; conditions: purified BLT2 associated with amphipols in solution, in vitro; cited from earlier work
BLT2 R270^7.35A = molecular target: T1, BLT2 R270^7.35A (Homo sapiens, UniProt Q9NPC1, R270A); experiment: Gi protein activation catalyzed by BLT2 mutant; type: biochemical; conditions: R270 mutation compared to wild-type, in words
T1 construct: made in house
T1 sequence (Q9NPC1 1-358 R270A): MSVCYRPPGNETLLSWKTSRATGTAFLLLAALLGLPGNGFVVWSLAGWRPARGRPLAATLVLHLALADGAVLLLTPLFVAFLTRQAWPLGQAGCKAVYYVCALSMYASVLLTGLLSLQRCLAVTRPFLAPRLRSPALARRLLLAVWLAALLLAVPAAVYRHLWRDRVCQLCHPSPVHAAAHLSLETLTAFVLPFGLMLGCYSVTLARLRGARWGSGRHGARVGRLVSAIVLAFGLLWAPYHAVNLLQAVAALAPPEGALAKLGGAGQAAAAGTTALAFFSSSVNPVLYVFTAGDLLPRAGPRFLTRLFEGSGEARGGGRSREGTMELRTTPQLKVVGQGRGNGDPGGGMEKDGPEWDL
Description: (§1) All mutations were introduced in the wild-type BLT2 receptor by PCR-mediated mutagenesis using the QuickChange multisite-directed mutagenesis kit (Stratagene) and the wild-type BLT2 construct as a template. Mutations were confirmed by nucleotide sequencing.
(§2) Gαi2 and Gβ1γ2 were prepared as previously described. Briefly, agonist-dependent functional coupling of the purified receptor to Gαi2β1γ2 was assessed through the rate of GTPγS binding at increasing agonist concentrations determined by monitoring the relative increase in the intrinsic fluorescence ( λexcitation=300nm , λemission=345nm ) of Gαi2 (200 nM of purified G protein) in the presence of BLT2 (20 nM) in buffer containing 10 mM MOPS, pH 7.2, 130 mM NaCl, and 2 mM MgCl2 at 15 °C after the addition of 10 μM GTPγS. The data were normalized to the fluorescence maximum obtained in the presence of saturating concentrations in 12–HHT (10 μM).

BLT2 S174^ECL2A = molecular target: T2, BLT2 S174^ECL2A (Homo sapiens, UniProt Q9NPC1, S174A); experiment: Gi protein activation catalyzed by BLT2 mutant; type: biochemical; conditions: S174 mutation compared to wild-type, in words
T2 construct: made in house
T2 sequence (Q9NPC1 1-358 S174A): T1 sequence (Q9NPC1 1-358 R270A) with S174A, A270R
Description: as §1, §2

BLT2 = molecular target: BLT2; set-up: method as in PMID 10934230; conditions: cited from earlier work

effect of the mutation on ligand binding (BLT2 R270^7.35A): does not affect the binding | effect of the mutation on ligand binding (BLT2 S174^ECL2A): does not affect the binding
Structure (SMILES): CCCCC/C=C\C[C@@H](O)/C=C/C=C/C=C\[C@@H](O)CCCC(=O)O [LTB4, leukotriene B4]
Kd (BLT1): ~0.001 µM | effect of the mutation on LTB4 binding [1]: complete loss of LTB4 binding | Kd (purified BLT2 receptor): ~0.2 µM | Kd (BLT2; membrane fractions, BLT2 transfected HEK 293 cells, in cellulo, read-out: equilibrium dissociation constant (Kd)): ~0.02 µM | Kd weaker in the case of BLT2 compared to BLT1 (BLT2; transfected HEK 293 cells): 20 fold
